From patent publication EP0791004B1, “ACYLATED BENZYLGLYCOSIDES AS INHIBITORS OF SMOOTH MUSCLE CELL PROLIFERATION” (AMERICAN HOME PRODUCTS CORPORATION, priority 1994, dated 1996) come the findings set out here.

The subject of series [1] is Porcine Smooth Muscle Cell. Description: Smooth muscle cell proliferation, 3H thymidine incorporation (serum stimulated). The series is classed as cell-based. Particulars: for IC50: 3H thymidine incorporation, read-out: Porcine Smooth Muscle Cell Antiproliferation IC50. On the procedure: The ability of the compounds of the present invention to inhibit smooth muscle cell proliferation was established using isolated aortic cells. Porcine aortas were received from a local slaughterhouse and were iced during transit. The aorta was scrupulously cleansed of fatty tissue and rinsed in sterile phosphate-buffered saline with 2% antibiotic/antimycotic (Gibco catalog # 600 - 5240 AG). The tissue was then digested in 10 - 15 mL of "Enzyme Mixture" containing collagenase type I, 165 U/mL; elastase type III, 15 U/mL; BSA, 2 mg/mL; and soybean trypsin inhibitor, 0.375 mg/mL followed by incubation at 37 °C under 5% CO2 for 10 - 15 min. After this treatment, the outer surface adventitia was easily removed by peeling with forceps. The aorta was then longitudinally cut and laid open and the endothelial layer was removed by scraping.
The medial layer of cells was rinsed in enzyme solution, and placed in a new 100 mm dish with 10 mL of enzyme solution. The aorta was minced using a fine pair of scissors and digested for 2 - 3 h at 37 °C in 30 mL of fresh enzyme solution. After digestion, the tissue was homogenized using a sterile Pasteur pipette with a fire polished tip or an eppendorf pipetter with a 200 - 1000 µL sterile pipette tip. The suspension was then centrifuged for 10 minutes at 8000 rpm and the pellet was suspended in 4 - 6 mL of fresh medium and plated onto 4 - 6 100 mm flasks with vented caps. Cells were allowed to grow to confluence and split using 0.25 % trypsin. Cells were evaluated for purity and overall quality using antibody to SMC actin.
Cells were assayed in early passage (generally passage 3 - 7) at sub-confluent conditions. Cultures were grown in 16 mm (24 well) multi-well culture dishes in medium 199 supplemented with 10% fetal bovine serum and 2% antibiotic/ antimycotic. At sub-confluence, the cells were placed in a defined serum free medium (AIM-V; Gibco) for 24 - 48 h prior to initiating the experimental protocol.
Compounds were added to each well at 50 fold dilution (20 µL / well) and the plates were incubated for 24 - 36 h at 37 °C in 5% CO2. Compounds were initially dissolved in 50% ethanol and serially diluted into media. Compounds were routinely assayed at concentrations from 1 to 100 µM. As a control, grade II porcine intestinal mucosal heparin (sodium salt) from Sigma (H-7005) was routinely assayed in all cell preparations at concentrations from 0.1 to 100 µg/mL.
At the completion of the experiment, plates were placed on ice, washed three times with ice cold phosphate buffered saline (PBS) and incubated in ice cold 10% trichloroacetic acid (TCA) for 30 minutes to remove acid soluble proteins. Solution was transferred to scintillation vials containing 0.4 N HCl (500 µL/vial to neutralize NaOH) and each well was rinsed two times with water (500 µL) for a total volume of 2 mL/vial.
Data was obtained, in triplicate, for both control and experimental samples. Control (100%) data was obtained from maximally stimulated cells, as the result of growth factor or serum stimulation. Experimental data was obtained from cells maximally stimulated with growth factor or serum and treated with compound. Data was expressed as a percent of control from which a percent inhibition or IC50 could be determined.
(In general: Uptake of a labelled nucleoside into DNA is a usual measure of proliferation.)

In series [2] the test system is Porcine Smooth Muscle Cell. Description: Cytotoxicity, MTT assay. The series is classed as cell-based. Particulars: up to 100 µg/mL; 24 h, medium without serum. On the procedure: Briefly, cells were again grown in 24 well plates to 70 - 80 % confluency and, as before, serum deprived for 24 - 48 h prior to initiation of the experimental protocol. To insure that the MTT assay monitored toxicity rather than proliferation, cells were incubated with 100 µg/mL of drug in fresh medium without serum for 24 h at 37 °C in a humidified CO2 incubator. Upon completion of the compound treatment, MTT (3-[4,5-dimethylthiazol-2-yl]-2,5-diphenyltetrazolium bromide) indicator dye was added for 4 h at 37 °C. Cells were then lysed and aliquots from each well were transferred to a 96 well plate for analysis. Absorbance at 570 nm wavelength with a reference wavelength of 630 nm was recorded using an ELISA plate reader. Results were determined as percent viable using no drug (100% viable) and pre-solubilization (0% viable) standards.
In general terms: Formazan colour is commonly taken as a measure of viable cells.

The next series relates to normal human plasma. Description: Anticoagulant activity, partial thromboplastin time (APTT) assay. The series is classed as biochemical. Particulars: human citrated plasma. On the procedure: The anticlotting activity of the compounds of this invention was evaluated in a partial thromboplastin time (APTT) assay using normal human plasma collected from 5 donors according to the procedure of Fenichel et. al. (Clin. Chem. 1964, 10, 69). A BBL Fibrometer automatic precision coagulation timer utilizing a 0.3 mL probe was employed. An Ellagic acid activated partial thromboplastin was used for these experiments. This reagent was added to human citrated plasma equilibrated at 37 °C in a plastic well in the clot timer. Calcium at 37 °C was added, the clot timer was started and the time for fibrin clot formation (in seconds) was recorded. The effect of the compounds, added to plasma, over a concentration of 12.5 - 200 µg/mL was determined. […] An unfractionated heparin comparator was used over the concentration range of 1.25 - 10 µg/mL. Clotting tests at all concentrations were run in triplicate. Analysis of variance for a randomized block design was used to determine the significance of differences observed in the clotting times. […]

The mark [3] stands for this setting: Sus scrofa, read-out: Porcine Smooth Muscle Cell Antiproliferation (% Inhibition at x concentration).

As to `CC(=O)OC[C@H]1O[C@@H](OCc2ccc(C)c(NC(=O)c3cccc([N+](=O)[O-])c3)c2)[C@H](OC(C)=O)[C@@H](OC(C)=O)[C@@H]1OC(C)=O` [Example 1, N-[2-Methyl-5-(2,3,4,6-tetra-O-acetyl-β-D-glucopyranosyloxymethyl)phenyl]-3-nitrobenzamide], the inhibition at 50 µg/mL in series [1] (setting [3]) was found to be 79%.
For the molecule “Butane-1-sulfonic Acid N-[5-(Hepta-O-acetyl-β-D-maltosyloxymethyl)-2-methylphenyl]amide [Example 28]”, the IC50 in series [1] was determined as 9 µM.
For the molecule `CC(=O)OC[C@H]1O[C@H](O[C@H]2[C@H](OC(C)=O)[C@@H](OC(C)=O)[C@H](OCc3ccc(C)c(NC(=O)C4CCCC4)c3)O[C@@H]2COC(C)=O)[C@H](OC(C)=O)[C@@H](OC(C)=O)[C@@H]1OC(C)=O` [Example 15, Cyclopentanecarboxylic Acid N-[5-(Hepta-O-acetyl-β-D-maltosyloxymethyl)-2-methylphenyl]amide], the “toxicity (MTT, percent viable)” value in series [2] was “no toxicity”.
For the molecule “N-{3-[2-(Hepta-O-acetyl-β-D-maltosyloxymethyl)-6-methylphenylcarbamoyl]phenyl}-3,5-di-tert-butyl-4-hydroxybenzamide [Example 7]”, the IC50 in series [1] turned out to be 185 µM.
For `CC(=O)Nc1cccc(C(=O)Nc2cc(CO[C@@H]3O[C@H](COC(C)=O)[C@@H](O[C@H]4O[C@H](COC(C)=O)[C@@H](OC(C)=O)[C@H](OC(C)=O)[C@H]4OC(C)=O)[C@H](OC(C)=O)[C@H]3OC(C)=O)ccc2C)c1` [Example 6, 3-Acetylamino-N-[5-(hepta-O-acetyl-β-D-maltosyloxymethyl)-2-methylphenyl]benzamide], in series [2], the “toxicity (MTT, percent viable)” value is “no toxicity”.
As for `CCC(=O)OC[C@H]1O[C@H](O[C@H]2[C@H](OC(=O)CC)[C@@H](OC(=O)CC)[C@H](OCc3ccc(C)c(N(C(=O)CC)S(=O)(=O)c4ccc(N(C(=O)CC)S(C)(=O)=O)cc4)c3)O[C@@H]2COC(=O)CC)[C@H](OC(=O)CC)[C@@H](OC(=O)CC)[C@@H]1OC(=O)CC` [Example 33, N-Propionyl-4-[propionyl(methanesulfonyl)amino]-N-[5-(hepta-O-propionyl-β-D-maltosyloxymethyl)-2-methylphenyl]benzenesulfonamide], the inhibition at 20 µM in series [1] (Sus scrofa, at 20 µM, read-out: Porcine Smooth Muscle Cell Antiproliferation (% Inhibition at x concentration)) is 30%.
Consider `CC(=O)OC[C@H]1O[C@H](O[C@H]2[C@H](OC(C)=O)[C@@H](OC(C)=O)[C@H](OCc3ccc(C)c(NC(=O)c4cccc([N+](=O)[O-])c4)c3)O[C@@H]2COC(C)=O)[C@H](OC(C)=O)[C@@H](OC(C)=O)[C@@H]1OC(C)=O` [Example 4, N-[5-(Hepta-O-acetyl-β-D-maltosyloxymethyl)-2-methylphenyl]-3-nitrobenzamide], for which the inhibition at 50 µg/mL in series [1] (setting [3]) came to 13%.
On to `CC(=O)OC[C@H]1O[C@H](O[C@H]2[C@H](OC(C)=O)[C@@H](OC(C)=O)[C@H](OCc3ccc(C)c(NC(=O)c4cccc(N)c4)c3)O[C@@H]2COC(C)=O)[C@H](OC(C)=O)[C@@H](OC(C)=O)[C@@H]1OC(C)=O` [Example 5, N-[5-(Hepta-O-acetyl-β-D-maltosyloxymethyl)-2-methylphenyl]-3-aminobenzamide], for which the inhibition at 50 µg/mL in series [1] (setting [3]) came out at 44%.
Turning to `CC(=O)OC[C@H]1O[C@H](O[C@H]2[C@H](OC(C)=O)[C@@H](OC(C)=O)[C@H](OCc3ccc(C)c(NS(=O)(=O)c4ccc(C)cc4)c3)O[C@@H]2COC(C)=O)[C@H](OC(C)=O)[C@@H](OC(C)=O)[C@@H]1OC(C)=O` [Example 24, N-[5-(Hepta-O-acetyl-β-D-maltosyloxymethyl)-2-methylphenyl]-4-methylbenzenesulfonamide], the inhibition at 40 µM in series [1] (setting [3]) stood at 61%.
With `CC(=O)OC[C@H]1O[C@H](O[C@H]2[C@H](OC(C)=O)[C@@H](OC(C)=O)[C@H](OCc3ccc(C)c(NC(=O)C4CC4)c3)O[C@@H]2COC(C)=O)[C@H](OC(C)=O)[C@@H](OC(C)=O)[C@@H]1OC(C)=O` [Example 14, Cyclopropanecarboxylic Acid N-[5-(Hepta-O-acetyl-β-D-maltosyloxymethyl)-2-methylphenyl]amide], in series [2], the “toxicity (MTT, percent viable)” value is reported as “no toxicity”.
On to `CC(=O)OC[C@H]1O[C@H](O[C@H]2[C@H](OC(C)=O)[C@@H](OC(C)=O)[C@H](OCc3ccc(C)c(N)c3)O[C@@H]2COC(C)=O)[C@H](OC(C)=O)[C@@H](OC(C)=O)[C@@H]1OC(C)=O` [Example 3, 5-(Hepta-O-acetyl-β-maltosyloxymethyl)-2-methylphenylamine], for which the “anticoagulant activity (APTT assay)” value with normal human plasma is listed as “no anticoagulant activity”. Moreover, the “toxicity (MTT, percent viable)” value in series [2] is reported as “no toxicity”.
For the molecule `CC(=O)OC[C@H]1O[C@H](O[C@H]2[C@H](OC(C)=O)[C@@H](OC(C)=O)[C@H](OCc3ccc(N)c(C)c3)O[C@@H]2COC(C)=O)[C@H](OC(C)=O)[C@@H](OC(C)=O)[C@@H]1OC(C)=O` [Example 29, 4-(Hepta-O-acetyl-β-D-maltosyloxymethyl)-2-methylphenylamine], the inhibition at 40 µM in series [1] (setting [3]) turned out to be 70%.
Consider `CC(=O)OC[C@H]1O[C@H](O[C@H]2[C@H](OC(C)=O)[C@@H](OC(C)=O)[C@H](OCc3ccc(C)c(NC(=O)CCC4CCCC4)c3)O[C@@H]2COC(C)=O)[C@H](OC(C)=O)[C@@H](OC(C)=O)[C@@H]1OC(C)=O` [Example 16, N-[5-(Hepta-O-acetyl-β-D-maltosyloxymethyl)-2-methylphenyl]-3-cyclopentylpropionamide], for which the “toxicity (MTT, percent viable)” value in series [2] is listed as “no toxicity”.
For `CC(=O)OC[C@H]1O[C@@H](OCc2ccc(C)c(NC(=O)c3cccc(N)c3)c2)[C@H](OC(C)=O)[C@@H](OC(C)=O)[C@@H]1OC(C)=O` [Example 2, 3-Amino-N-[2-methyl-5-(2,3,4,6-tetra-O-acethyl-β-D-glucopyranosyloxymethyl)phenyl]benzamide], in series [1] (setting [3]), the inhibition at 50 µg/mL was 23%.
As to `CC(=O)OC[C@H]1O[C@H](O[C@H]2[C@H](OC(C)=O)[C@@H](OC(C)=O)[C@H](OCc3ccc(N(S(=O)(=O)c4ccc([N+](=O)[O-])cc4)S(=O)(=O)c4ccc([N+](=O)[O-])cc4)c(C)c3)O[C@@H]2COC(C)=O)[C@H](OC(C)=O)[C@@H](OC(C)=O)[C@@H]1OC(C)=O` [Example 31, N-[4-(Hepta-O-acetyl-β-D-maltosyloxymethyl)-2-methylphenyl]-4-nitro-N-(4-nitrophenylsulfonyl)benzenesulfonamide], in series [1] (Sus scrofa, at 100 µM, read-out: Porcine Smooth Muscle Cell Antiproliferation (% Inhibition at x concentration)), the inhibition at 100 µM was 37%.
